Test results from the supplement of paper PMC5908809.

How the values were obtained:
[1] = system: normal NK cells expanded with K562-aAPC; assay: drug sensitivity score (DSS) (DSS units); higher = more sensitive; extreme values may be limits of the assay; conditions: 72 h; IL-2 2.5 ng/mL
Method: (§1)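 Drug sensitivity and resistance testing on K562-aAPC-expanded normal NK cells: 5 concentrations (10-fold steps over a 10,000-fold range), 72 h at 37 °C, viability by CellTiter-Glo normalised to DMSO and benzethonium chloride controls; DSS from the fitted curve.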

NK-92 (IL-2 2.5 ng/mL) [2] = assay: as above; conditions: 72 h
NK-YS (IL-2 2.5 ng/mL) [3] = assay: as above; conditions: 72 h
[4] = system: normal primary NK cells, pool 3 (3 donors) (IL-2 2.5 ng/mL); assay: as above; conditions: 72 h
[5] = system: normal primary NK cells, pool 1 (3 donors), resting (IL-2 0 ng/mL); assay: as above; conditions: 72 h
KHYG-1 (IL-2 2.5 ng/mL) [6] = assay: as above; conditions: 72 h
[7] = system: normal primary NK cells, pool 1 (3 donors) (IL-2 2.5 ng/mL); assay: as above; conditions: 72 h
[8] = system: normal primary NK cells, pool 2 (3 donors) (IL-2 2.5 ng/mL); assay: as above; conditions: 72 h
SNK-6 (IL-2 2.5 ng/mL) [9] = assay: as above; conditions: 72 h
KAI3 (IL-2 2.5 ng/mL) [10] = assay: as above; conditions: 72 h
NKL (IL-2 2.5 ng/mL) [11] = assay: as above; conditions: 72 h
IMC-1 (IL-2 20 ng/mL) [12] = assay: as above; conditions: 72 h
YT (IL-2 2.5 ng/mL) [13] = assay: as above; conditions: 72 h
DERL-7 (IL-2 2.5 ng/mL) [14] = assay: as above; conditions: 72 h
NK-92 (IL-2 2.5 ng/mL) [15] = assay: percent inhibition of viability; higher = more inhibition; conditions: 72 h
NK-YS (IL-2 2.5 ng/mL) [16] = assay: as above; conditions: 72 h
[17] = system: normal primary NK cells, pool 3 (3 donors) (IL-2 2.5 ng/mL); assay: as above; conditions: 72 h
[18] = system: normal primary NK cells, pool 1 (3 donors), resting (IL-2 0 ng/mL); assay: as above; conditions: 72 h
KHYG-1 (IL-2 2.5 ng/mL) [19] = assay: as above; conditions: 72 h
[20] = system: normal primary NK cells, pool 1 (3 donors) (IL-2 2.5 ng/mL); assay: as above; conditions: 72 h
[21] = system: normal primary NK cells, pool 2 (3 donors) (IL-2 2.5 ng/mL); assay: as above; conditions: 72 h
SNK-6 (IL-2 2.5 ng/mL) [22] = assay: as above; conditions: 72 h
KAI3 (IL-2 2.5 ng/mL) [23] = assay: as above; conditions: 72 h
NKL (IL-2 2.5 ng/mL) [24] = assay: as above; conditions: 72 h
IMC-1 (IL-2 20 ng/mL) [25] = assay: as above; conditions: 72 h
YT (IL-2 2.5 ng/mL) [26] = assay: as above; conditions: 72 h
DERL-7 (IL-2 2.5 ng/mL) [27] = assay: as above; conditions: 72 h
[28] = system: normal NK cells expanded with K562-aAPC; assay: as above; conditions: 72 h, IL-2 2.5 ng/mL
Method: as §1

COCC1(CO)C(=O)C2CCN1CC2 (stereo not drawn) [APR-246] (max concentration tested 10000 nM)
Conditions	drug sensitivity score
DERL-7 (IL-2 2.5 ng/mL) [14]	0.03
IMC-1 (IL-2 20 ng/mL) [12]	0
KAI3 (IL-2 2.5 ng/mL) [10]	0.58
KHYG-1 (IL-2 2.5 ng/mL) [6]	0
NK-92 (IL-2 2.5 ng/mL) [2]	0.65
NK-YS (IL-2 2.5 ng/mL) [3]	1.17
NKL (IL-2 2.5 ng/mL) [11]	3.01
SNK-6 (IL-2 2.5 ng/mL) [9]	3.96
YT (IL-2 2.5 ng/mL) [13]	0
[1]	5.95
[4]	15.2
[5]	16.9
[7]	14.2
[8]	15.7

percent inhibition of viability [%]
Conditions	1 nM	10 nM	100 nM	1000 nM	10000 nM
DERL-7 (IL-2 2.5 ng/mL) [27]	4.22	1.94	4.99	-6.45	12.9
IMC-1 (IL-2 20 ng/mL) [25]	-7.37	-2.9	-3.59	8.76	9.03
KAI3 (IL-2 2.5 ng/mL) [23]	-1.81	0.4	-2.31	2.12	16.5
KHYG-1 (IL-2 2.5 ng/mL) [19]	-5.21	-0.64	-2.81	5.38	7.34
NK-92 (IL-2 2.5 ng/mL) [15]	-5.03	9.77	10.8	10.9	10.2
NK-YS (IL-2 2.5 ng/mL) [16]	-7.21	1.41	3.46	5.78	20.9
NKL (IL-2 2.5 ng/mL) [24]	-3.21	-5.06	5.12	11	36.4
SNK-6 (IL-2 2.5 ng/mL) [22]	4.82	6.66	11.8	20.5	26.2
YT (IL-2 2.5 ng/mL) [26]	-1.79	-3.13	4.5	1.6	7.67
[17]	-9.08	-4.43	12.5	73	98
[18]	-1.14	-6.72	13.5	82.8	91.7
[20]	0.39	-11.5	5.91	70.5	98
[21]	-11.3	-4.04	11.3	77	96
[28]	-2.16	1.78	5.44	14.3	66.4

Cc1cc(C(=O)NOCCO)c(Nc2ccc(I)cc2F)n(C)c1=O [AZD-8330] (max concentration tested 10000 nM)
Conditions	drug sensitivity score
DERL-7 (IL-2 2.5 ng/mL) [14]	15.5
IMC-1 (IL-2 20 ng/mL) [12]	0
KAI3 (IL-2 2.5 ng/mL) [10]	0
KHYG-1 (IL-2 2.5 ng/mL) [6]	20.8
NK-92 (IL-2 2.5 ng/mL) [2]	0
NK-YS (IL-2 2.5 ng/mL) [3]	1.5
NKL (IL-2 2.5 ng/mL) [11]	24.7
SNK-6 (IL-2 2.5 ng/mL) [9]	0
YT (IL-2 2.5 ng/mL) [13]	0
[1]	0
[4]	0
[5]	3.07
[7]	1.33
[8]	0

percent inhibition of viability [%]
Conditions	1 nM	10 nM	100 nM	1000 nM	10000 nM
DERL-7 (IL-2 2.5 ng/mL) [27]	10.5	19.5	39.8	44.6	49.1
IMC-1 (IL-2 20 ng/mL) [25]	-6.12	-4.24	-7.8	-3.57	1.54
KAI3 (IL-2 2.5 ng/mL) [23]	6.6	16.3	20.9	25.5	21.5
KHYG-1 (IL-2 2.5 ng/mL) [19]	4.36	28.4	50.2	60.9	59.9
NK-92 (IL-2 2.5 ng/mL) [15]	-20.4	-31.8	-23.9	-11.1	-34
NK-YS (IL-2 2.5 ng/mL) [16]	1.92	6.63	7.16	17	13.5
NKL (IL-2 2.5 ng/mL) [24]	9.59	36	58.2	70.4	65
SNK-6 (IL-2 2.5 ng/mL) [22]	-15.8	-23.2	-25.2	-18.2	-8.48
YT (IL-2 2.5 ng/mL) [26]	1.8	1.88	-1.55	5.74	3.13
[17]	-7.05	-12	-3.49	3.69	8.96
[18]	-12.3	-10.7	-6.76	10.4	33.8
[20]	1.16	3.34	2.94	11.4	20.3
[21]	-6.21	-3.9	6.25	1.91	6.61
[28]	0.89	-5.14	2.35	1.49	5.67
